Patent US20260345591A1, “COMBINATIONS OF ESTROGEN RECEPTOR DEGRADERS AND CDK4 INHIBITORS” (PFIZER INC., priority 2023, published 2026)
“Also recorded” adds a separate entry of the source.

Experiments:
MCF7 xenograft model = test: Tumor growth inhibition (anti-tumor efficacy) in MCF7 xenograft model, HR+/HER2- breast cancer; format: in vivo, Mus musculus (NSG mice); details: for TGI / TGI, statistical significance (ANCOVA): Day 41
Description: To generate MCF7 PO donors, cells were obtained from ATCC and cultured in RPM11640 supplemented with 10% FBS. All cells were maintained in a humidified incubator at 37 °C with 5% CO2.
To establish the MCF7 PO donor mice, cells (5×10^6/mouse with 50% Cultrex® Basement Membrane Matrix) were subcutaneously (in 0.2 mL total volume) implanted in female NSG mice supplemented with 17β-ESTRADIOL water ad libidum (8.5 μg/mL concentration). The 17β-ESTRADIOL water supplement was administered about 7 days before the implant and all throughout the duration of the study.
(§1) To establish the MCF7 P1, when tumor volume of MCF7 PO donor mice reached a range of 700 to 800 mm3, tumors were collected and cut into fragments. The fragments were subsequently transplanted into secondary recipient mice for TGI study expansion. Secondary recipient mice were than randomly assigned to groups (n=10) when tumor volumes reached a range between 143 mm3 and 209 mm3 and subsequently treated with: 1) vehicle (0.5% methylcellulose A4M/water), PO; 2) fulvestrant at 10 mg/kg twice in the first week, then weekly afterwards, SC; 3) Compound A at 30 mg/kg QD, PO; 4) Compound B at 30 mg/kg BID, PO; 5) Compound B at 60 mg/kg BID, PO; 6) Compound B at 30 mg/kg plus fulvestrant; 7) Compound B at 60 mg/kg plus fulvestrant; 8) Compound B at 30 mg/kg plus Compound A; 9) Compound B at 60 mg/kg plus […]; 10) palbociclib at 10 mg/kg BID, PO plus Compound A. All mice received treatment continuously until Day 42. TGI was assessed on Day 41 post first dose.
For the efficacy measurements, tumor volume and body weights were collected twice a week. Tumor volume was calculated using the [(Length×Width×Width)/2)] formula. TGI was calculated as 100*(1−ΔT/ΔC). The ΔC (ΔT) was obtained by subtracting the mean tumor burden in the vehicle (treated) group on the first day of treatment (Day 0) from the mean tumor burden in vehicle (treated) group on the assessment day. Statistical analysis was performed using TGI Analyzer ANCOVA. BLISS statistical analysis (statistical modeling of single drug response from drug combination data) was used to measure synergy effect, a combination is synergistic if the tumor volume is less than the BLISS with pvalue of <0.05.
Compound B was tested at two CRD dose levels (30 mg/kg, BID and 60 mg/kg, BID) as a single agent or in combination with Compound A at 30 mg/kg QD or fulvestrant at CRD (10 mg/kg). Palbociclib at CRD (10 mg/kg, BID) in combination with Compound A served as a positive comparator.

[1] = test system: HR+HER2− BC Xenograft Model MCF7; test: Tumor regrowth after end of treatment in MCF7 xenograft model; format: in vivo, Mus musculus (NSG mice); details: fulvestrant 10 mg/kg alone; Compound A 30 mg/kg QD alone; palbociclib 10 mg/kg BID + Compound A 30 mg/kg QD
Description: as §1
For the efficacy measurements, tumor volume and body weights were collected twice a week. Tumor volume was calculated using the [(Length×Width×Width)/2)] formula. TGI was calculated as 100*(1−ΔT/ΔC). […]
Tumor growth delay was monitored after treatment was discontinued on Day 43 and statistical analysis was performed on Day 26 post last dose (Day 69 post study start).

[2] = Biopharmaceutics Classification System (solubility/permeability); format: physicochemical
[3] = Interconversion to epimer; format: physicochemical
[4] = Preclinical exposure of epimer Compound C compared to Compound A; format: in vivo; details: preclinical data
estrogen receptor = biological target: T1, estrogen receptor (Homo sapiens, UniProt P03372); test: Degradation of the estrogen receptor; format: cell-based; details: preclinical data
T1 construct: cereblon-recruiting PROTAC degradation
T1 sequence (P03372 1-595): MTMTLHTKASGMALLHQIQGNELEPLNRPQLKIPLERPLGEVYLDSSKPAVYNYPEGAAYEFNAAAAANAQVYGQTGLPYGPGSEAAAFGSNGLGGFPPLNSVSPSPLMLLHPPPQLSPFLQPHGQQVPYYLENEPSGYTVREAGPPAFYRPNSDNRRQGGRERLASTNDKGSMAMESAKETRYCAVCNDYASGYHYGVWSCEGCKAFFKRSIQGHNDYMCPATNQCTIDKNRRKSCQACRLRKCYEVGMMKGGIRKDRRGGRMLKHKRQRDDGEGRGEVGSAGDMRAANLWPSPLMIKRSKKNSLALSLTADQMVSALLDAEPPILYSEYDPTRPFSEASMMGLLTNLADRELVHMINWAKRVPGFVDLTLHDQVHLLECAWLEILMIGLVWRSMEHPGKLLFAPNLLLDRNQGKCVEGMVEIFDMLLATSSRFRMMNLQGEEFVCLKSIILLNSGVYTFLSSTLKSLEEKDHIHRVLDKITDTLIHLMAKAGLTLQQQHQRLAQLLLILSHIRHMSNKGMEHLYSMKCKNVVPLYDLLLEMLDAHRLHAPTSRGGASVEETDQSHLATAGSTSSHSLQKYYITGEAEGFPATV

[5] = fulvestrant 10 mg/kg alone, Compound A 30 mg/kg QD alone, palbociclib 10 mg/kg BID + Compound A 30 mg/kg QD

Compound: O=C1CC[C@H](N2Cc3cc(N4CCN(CC5CCN(c6ccc([C@@H]7c8ccc(O)cc8CC[C@@H]7c7ccccc7)cc6)CC5)CC4)ccc3C2=O)C(=O)N1 [Compound A, (S)-3-(5-(4-((1-(4-((1R,2S)-6-hydroxy-2-phenyl-1,2,3,4-tetrahydronaphthalen-1-yl)phenyl)piperidin-4-yl)methyl)piperazin-1-yl)-1-oxoisoindolin-2-yl)piperidine-2,6-dione]
- TGI (MCF7 xenograft model; Compound A 30 mg/kg PO QD × 42 D): 119%
- TGI, statistical significance (ANCOVA) (MCF7 xenograft model; Compound A 30 mg/kg QD, alone or with palbociclib 10 mg/kg BID): *α+βγ
- antitumor efficacy (MCF7 xenograft model; [5]): significant tumor regression; also recorded: no significant differences in the TGI
- Tumor regrowth, ANCOVA Analysis (Day 26 post end of treatment) [1]: β (indicates p < 0.05 versus Compound B single agent)
- Biopharmaceutics Classification System class [2]: Class IV compound (low solubility/low permeability)
- interconversion to epimer Compound C [3]: can interconvert to its epimer

Compound: CC(C)n1c(C(C)(C)O)nc2c(F)cc(-c3nc(N[C@@H]4CCOC[C@H]4O)ncc3Cl)cc21 [Compound B, 1,5-anhydro-3-({5-chloro-4-[4-fluoro-2-(2-hydroxypropan-2-yl)-1-(propan-2-yl)-1H-benzimidazol-6-yl]pyrimidin-2-yl}amino)-2,3-dideoxy-D-threo-pentitol]
- TGI (MCF7 xenograft model; Compound B 30 mg/kg PO BID × 42 D): 62%
- TGI (MCF7 xenograft model; Compound B 60 mg/kg PO BID × 42 D): 81%
- TGI, statistical significance (ANCOVA) (MCF7 xenograft model; Compound B at 30 mg/kg BID, alone or + fulvestrant 10 mg/kg): *α ^
- TGI, statistical significance (ANCOVA) (MCF7 xenograft model; Compound B at 60 mg/kg BID, alone, + fulvestrant 10 mg/kg or + Compound A 30 mg/kg QD): *+α
- antitumor efficacy (MCF7 xenograft model; Compound B at 30 and 60 mg/kg BID, alone or + Compound A 30 mg/kg QD): significant tumor growth inhibition; also recorded: significant efficacy

Compound: O=C1CC[C@@H](N2Cc3cc(N4CCN(CC5CCN(c6ccc([C@@H]7c8ccc(O)cc8CC[C@@H]7c7ccccc7)cc6)CC5)CC4)ccc3C2=O)C(=O)N1 [Compound C]
- exposure of Compound C compared to Compound A [4]: < 26%
- degradation of the estrogen receptor (estrogen receptor): does not degrade the estrogen receptor

Compound: C[C@]12CC[C@@H]3c4ccc(O)cc4C[C@@H](CCCCCCCCC[S+]([O-])CCCC(F)(F)C(F)(F)F)[C@H]3[C@@H]1CC[C@@H]2O (stereo partly drawn) [Fulvestrant, fulvestrant, reference compound]
- TGI (MCF7 xenograft model; fulvestrant 10 mg/kg SC, D 1, D 3, then 1x/week × 5 W): −7%
- antitumor efficacy (MCF7 xenograft model; [5]): no tumor growth inhibition
